This is an account of results in patent US20240409585A1, “MACROCYCLIC IMMUNOMODULATORS” (priority 2021, published 2024).

What is called IC50 is the concentration at which inhibition is half-maximal.

Numbered stars: 1 amine (or outer) side, 2 acyl side, 3 side chain; on linkers, the order of the positions; unused ones are H or OH. Bridge positions count the residues as written; N and C are the ends. Square brackets hold non-standard residues; d marks the D form. Peptide text beside a SMILES is read from it. * marks the point of attachment. ξ: configuration not given here. Ala(Nα-(CH2)3NH) = C[C@@H](C(=O)[*:2])N(CCCN[*:3])[*:1]; Trp(7-Cl) = N[C@@H](Cc1c[nH]c2c(Cl)cccc12)C(=O)O; Bip = N[C@@H](Cc1ccc(-c2ccccc2)cc1)C(=O)O; Phe(3-Me) = Cc1cccc(C[C@H](N)C(=O)O)c1; h4Pal = N[C@@H](CCc1ccncc1)C(=O)O; Cha = N[C@@H](CC1CCCCC1)C(=O)O; Ile(3ξ) = CCC(C)[C@H](N)C(=O)O; Thr(3ξ) = CC(O)[C@H](N)C(=O)O; NMeNle = CCCC[C@H](NC)C(=O)O; Carboxymethyl = O=C(O)C*; NMeA = CN[C@@H](C)C(=O)O; Dab = NCC[C@H](N)C(=O)O

T1 sequence (Q15116 25-288): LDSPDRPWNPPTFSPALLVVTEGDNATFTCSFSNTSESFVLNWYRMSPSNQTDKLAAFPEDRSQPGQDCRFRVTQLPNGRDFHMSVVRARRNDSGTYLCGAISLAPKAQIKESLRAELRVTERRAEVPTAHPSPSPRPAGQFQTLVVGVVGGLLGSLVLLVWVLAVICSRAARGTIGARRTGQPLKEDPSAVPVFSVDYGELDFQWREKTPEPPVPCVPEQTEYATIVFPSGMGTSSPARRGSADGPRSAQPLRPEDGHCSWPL

The experiment has as its target T1, PE-labeled human PD-L1-Ig binding to Jurkat cell line over-expressing human PD-1 (Jurkat-PD-1) (Homo sapiens, UniProt Q15116).
T1 construct: expressed in transfected cells; host or cells: Jurkat
Put plainly: Jurkat-PD-1 Cell Binding High-Content Screening Assay (CBA): Method 1. The note with it: Jurkat-hPD-1 cells, PE-labeled PD-L1-Ig 20 nM final; read-out: Jurkat HPDL1 PD1 IC50 (uM) (Method 1).
Consider `CCCC[C@H]1C(=O)N[C@H](CC(C)C)C(=O)N[C@@H](CCN)C(=O)N[C@@H](CC(C)C)C(=O)N[C@@H](C(C)C)C(=O)N[C@@H](CO)C(=O)N[C@H](C(=O)N[C@@H](CC(N)=O)C(=O)O)CSCC(=O)N[C@@H](C(C)O)C(=O)N[C@@H](Cc2ccc(OCC(=O)O)cc2)C(=O)N[C@@H](CC(=O)O)C(=O)N[C@@H](Cc2c[nH]c3ccccc23)C(=O)N[C@@H](CC(C)C)C(=O)N[C@@H](Cc2ccc(-c3ccccc3)cc2)C(=O)N[C@@H](C(C)CC)C(=O)N1C` (stereo partly drawn) [Compound 2229] ({CH2CO}-[Thr(3ξ)]Y(Carboxymethyl)DWL[Bip][Ile(3ξ)][NMeNle][dL][Dab]LVSCN-OH; thioether N-14), for which the IC50 is 0.11 µM. Under `CC(C)C[C@@H]1NC(=O)[C@H](CCCNC(=N)N)NC(=O)[C@@H](CC(C)C)NC(=O)[C@H](C)N(C)C(=O)[C@H](CCCNC(=N)N)NC(=O)[C@H](Cc2ccc(-c3ccccc3)cc2)NC(=O)[C@H](C(C)C)NC(=O)[C@H](Cc2c[nH]c3c(Cl)cccc23)NC(=O)[C@H](CC(=O)O)NC(=O)[C@H](Cc2ccc(O)cc2)NC(=O)[C@H](Cc2ccccc2)NC(=O)CSC[C@@H](C(=O)N[C@@H](C)C(N)=O)NC(=O)[C@H]([C@@H](C)O)NC(=O)[C@H](C(C)C)NC1=O` [Compound 1098] ({CH2CO}-FYD[Trp(7-Cl)]V[Bip]R[NMeA][dL]RLVTCA-NH2; thioether N-14) stands 0.13 µM. Turning to `CC(C)C[C@@H]1NC(=O)[C@H](Cc2c[nH]c3ccccc23)NC(=O)[C@H](CC(=O)O)NC(=O)[C@H](Cc2ccc(OCC(=O)O)cc2)NC(=O)[C@H](CCc2ccncc2)NC(=O)CSC[C@@H](C(=O)N[C@@H](CC(N)=O)C(N)=O)NC(=O)[C@H](Cc2cnc[nH]2)NC(=O)[C@H](C(C)C)NC(=O)[C@H](CC(C)C)NC(=O)[C@H](CCN)NC(=O)[C@@H](CC(C)C)NC(=O)[C@H](C)N(C)C(=O)[C@H](C(C)C)NC(=O)[C@H](Cc2ccc(-c3ccccc3)cc2)NC1=O` [Compound 2099] ({CH2CO}-[h4Pal]Y(Carboxymethyl)DWL[Bip]V[NMeA][dL][Dab]LVHCN-NH2; thioether N-14), the IC50 turned out to be 0.02 µM.

As for `Cc1cccc(C[C@@H]2NC(=O)[C@H](CC(N)=O)NC(=O)[C@H](Cc3ccc(OCC(=O)O)cc3)NC(=O)[C@H]([C@@H](C)O)NC(=O)CSC[C@@H](C(=O)N[C@@H](CCN)C(N)=O)NC(=O)[C@H](CCC(=O)O)NC(=O)[C@H](C(C)C)NC(=O)[C@H](CC3CCCCC3)NC(=O)[C@H](CCN)NC(=O)[C@@H](CC(C)C)NC(=O)[C@H](C)N(C)C(=O)[C@H](Cc3ccc(OCC(=O)O)cc3)NC(=O)[C@H](Cc3ccc(-c4ccccc4)cc3)NC(=O)[C@H](Cc3ccc(OCC(=O)O)cc3)NC2=O)c1` [Example 2281] ({CH2CO}-TY(Carboxymethyl)N[Phe(3-Me)]Y(Carboxymethyl)[Bip]Y(Carboxymethyl)[NMeA][dL][Dab][Cha]VEC[Dab]-NH2; thioether N-14), the IC50 was 0.77 µM. Take `CC(C)C[C@@H]1NC(=O)[C@H](CCN)NC(=O)[C@@H](CC(C)C)NC(=O)[C@H](C)N(CCCN)C(=O)[C@H](CCCNC(=N)N)NC(=O)[C@H](Cc2ccc(-c3ccccc3)cc2)NC(=O)[C@H](C(C)C)NC(=O)[C@H](Cc2c[nH]c3ccccc23)NC(=O)[C@H](CC(=O)O)NC(=O)[C@H](Cc2ccc(O)cc2)NC(=O)[C@H](CC(N)=O)NC(=O)CSC[C@@H](C(=O)N[C@@H](C)C(N)=O)NC(=O)[C@H]([C@@H](C)O)NC(=O)[C@H](C(C)C)NC1=O` [Compound 1209] ({CH2CO}-NYDWV[Bip]R[Ala(Nα-(CH2)3NH)][dL][Dab]LVTCA-NH2; thioether N-14): the IC50 came out at 0.14 µM.
